# Where two headings read alike, the source gives them in different places.
# Experiments:
# PDE2 [1] = target: T1, PDE2 (Homo sapiens, UniProt O00408); conditions: cited from earlier work
# adenosine deaminase = adenosine deaminase (Homo sapiens, UniProt P00813); conditions: read-out: IC50 adenosine deaminase; cited from earlier work
# rats = experiment: Object recognition test; assay type: in vivo, rat; conditions: second run 24 hours later
# Method: The object recognition test is a memory test. It measures the ability of rats (and mice) to distinguish between familiar and unfamiliar objects.
# The test was carried out as described (Blokland et al. NeuroReport 1998, 9, 4205–4208; Ennaceur, A., Delacour, J., Behav. Brain Res. 1988, 31, 47–59; Ennaceur, A., Meliani, K., Psychopharmacology 1992, 109, 321–330; Prickaerts, et al. Eur. J. Pharmacol. 1997, 337, 125–136).
# In a first run, a rat is confronted in an otherwise empty observation arena of relatively large size by two identical objects. The rat will investigate, i.e. sniff round and touch, both objects extensively. In a second run, after an interval of 24 hours, the rat is put in the observation arena again. One of the familiar objects has now been replaced by a new, unfamiliar object. If a rat recognizes the familiar object, it will concentrate on investigating the unfamiliar object. However, after 24 hours, a rat has normally forgotten which object it investigated in the first run, and it will therefore inspect both objects to the same extent. Administration of a substance with a learning- and memory-improving effect will lead to a rat recognizing the object seen in the first run 24 hours previously as familiar. It will investigate the new, unfamiliar object in more detail than the familiar one. This memory ability is expressed in a discrimination index. A discrimination index of zero means that the rat investigates both objects, the old and the new, for equal times; that is to say it has not recognized the old object and reacts to both objects as if they were unfamiliar and new.
# The effects of Example 1 on object recognition by rats 24 hours after the first run were investigated. The animals received Tylose alone, or Example 1 in dosages of 0.3, 1.0 or 3.0 mg/kg of body weight suspended in Tylose, orally, immediately following the first run with two identical objects. […] After a washout period of 2 or 3 days, a new dosage of Example 1 was tested in the same rats, until the memory capacity of all the rats had been measured twice with all the dosages. […]
# PDE2 [2] = target: T2, PDE2 (Bos taurus, UniProt P14099); experiment: PDE inhibition, cGMP-stimulated PDE2 from bovine myocardium; assay type: biochemical
# T2 construct: from tissue; host or cells: bovine myocardium
# T2 sequence (P14099 1-921): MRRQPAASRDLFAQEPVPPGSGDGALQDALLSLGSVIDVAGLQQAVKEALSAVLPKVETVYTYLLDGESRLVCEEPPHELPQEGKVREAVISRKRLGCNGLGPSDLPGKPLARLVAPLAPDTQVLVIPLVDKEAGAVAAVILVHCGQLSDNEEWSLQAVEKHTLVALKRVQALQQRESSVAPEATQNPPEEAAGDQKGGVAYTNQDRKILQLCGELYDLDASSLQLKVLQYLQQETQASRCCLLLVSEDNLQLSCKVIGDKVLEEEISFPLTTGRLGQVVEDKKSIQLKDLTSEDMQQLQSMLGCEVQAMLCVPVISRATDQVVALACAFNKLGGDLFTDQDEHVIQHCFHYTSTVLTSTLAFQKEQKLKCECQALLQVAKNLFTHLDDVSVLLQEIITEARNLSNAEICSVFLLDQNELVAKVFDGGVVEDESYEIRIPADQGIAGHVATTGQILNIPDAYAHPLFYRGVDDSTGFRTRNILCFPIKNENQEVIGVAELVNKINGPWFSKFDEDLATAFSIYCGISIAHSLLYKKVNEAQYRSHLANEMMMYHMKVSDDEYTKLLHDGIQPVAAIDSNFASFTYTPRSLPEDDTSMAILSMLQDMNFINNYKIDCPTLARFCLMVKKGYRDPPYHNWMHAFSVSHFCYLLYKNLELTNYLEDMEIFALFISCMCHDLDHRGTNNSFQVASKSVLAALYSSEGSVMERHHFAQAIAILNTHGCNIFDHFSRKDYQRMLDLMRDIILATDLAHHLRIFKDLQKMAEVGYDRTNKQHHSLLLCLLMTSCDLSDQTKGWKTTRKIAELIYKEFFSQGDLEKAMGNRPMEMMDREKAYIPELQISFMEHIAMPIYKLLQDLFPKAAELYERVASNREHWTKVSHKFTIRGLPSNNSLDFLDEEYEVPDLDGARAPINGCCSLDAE
# Excerpt: (§1) The PDE 2 which can be stimulated by cGMP is isolated from bovine myocardium. The PDE 1 which can be stimulated by Ca^2+ calmodulin is isolated from porcine aorta, porcine brain or, preferably, from bovine aorta. The cGMP-specific PDE 5 is obtained from porcine small intestine, porcine aorta, human blood platelets and, preferably, from bovine aorta. Purification takes place by anion exchange chromatography on MonoQ^R Pharmacia essential by the method of Hoey, M; Houslay, M. D., Biochem. Pharmacol. 1990, 40, 193–202 and Lugman et al. Biochem. Pharmacol. 1986, 35, 1743–1751.
# (§2) The enzymatic activity is determined in an assay mixture of 100 μl in 20 mM Tris/HCl buffer pH 7.5 which contains 5 mM MgCl2, 0.1 mg/ml bovine serum albumin and 800 Bq of either [^3H]-cAMP or [^3H]-cGMP. The final concentration of the respective nucleotides is 10^−6 mol/l. […] 100 μl of the reaction mixture are separated by HPLC, and the cleavage products are determined quantitatively on line using a flow scintillation counter. The substance concentration at which the reaction rate is reduced by 50% is measured. […]
# (§3) Test substances are dissolved in 100% DMSO (10 mM), and this solution is diluted further with H2O (maximum final concentration in the assay: 10 μM). […] After the beads have settled out (about 15 min), the plate is measured in a beta counter.
# PDE7B = target: T3, PDE7B (Homo sapiens, UniProt Q9NP56); experiment: PDE inhibition, human recombinant PDE7B, [3H]cAMP SPA; assay type: biochemical
# T3 construct: made in house; host or cells: Sf9 cells, pFASTBAC baculovirus expression system (Gibco BRL)
# Method: (§4) Human recombinant PDE2 (Rosman et al. Gene 1997 191, 89–95), PDE3B (Miki et al. Genomics 1996 36, 476–485), PDE4B (Bolger et al. Mol. Cell. Biol. 1993 13, 6558–6571) and PDE7B (Hetman et al. Proc. Natl. Acad. Sci. U.S.A. 2000 97, 472–476) are expressed in Sf9 cells with the aid of the pFASTBAC baculovirus expression system (Gibco BRL).
# (§5) The activity of the test substances on human recombinant PDE2, PDE3B, PDE4B and PDE7B is determined using the [^3H]cAMP scintillation proximity assay (SPA) kit (TRKQ7090) from Amersham International (Little Chalfont, England) and on PDE1 and PDE5 using the [^3H]cGMP scintillation proximity assay (SPA) kit (TRKQ7100) from Amersham International (Little Chalfont, England).
# as §3, with “μM). The PDE2 is prestimulated by adding cGMP (final concentration in the assay: 10^−6 M). The enzyme is diluted in PDE buffer (20 mM TRIS/HCl, 5 mM MgCl2, 0.1 mg/ml albumin, pH 7.5).” for “μM).”
# (§6) Calmodulin 10^−7 M and CaCl2 1 μM are added to the reaction mixture for the PDE1 measurement. PDE5 is measured using the [^3H] cGMP SPA assay. PDE3B, PDE4B and PDE7B are measured using the [^3H] cAMP scintillation proximity assay.
# PDE1 = experiment: PDE inhibition, PDE1 (Ca-calmodulin-dependent); assay type: biochemical; conditions: bovine PDE1
# Excerpt: as §1
# as §2, with “[^3H]-cGMP.” for “[^3H]-cGMP. The final concentration of the respective nucleotides is 10^−6 mol/l.”
# as §5, with “England). […]” for “England).”
# PDE2 [3] = target: T1, PDE2; experiment: PDE inhibition, human recombinant PDE2, [3H]cAMP SPA; assay type: biochemical; parameters: made in house; host or cells: Sf9 cells, pFASTBAC baculovirus expression system (Gibco BRL)
# Method: as §4, §5
# as §3, with “μM). The PDE2 is prestimulated by adding cGMP (final concentration in the assay: 10^−6 M). The enzyme is diluted in PDE buffer (20 mM TRIS/HCl, 5 mM MgCl2, 0.1 mg/ml albumin, pH 7.5).” for “μM).”
# [4] = test system: primary mouse (E18) cortex cultures; experiment: Increasing the intracellular neuronal cGMP concentration in cell cultures; assay type: cell-based; conditions: 100 nM Example 1, parallel incubation with 100 µM SNP, 20 min, 37° C., mouse cortical neurons
# Method: PDE 2 inhibitors increase the intracellular neronal cGMP concentration after prestimulation of guanylate cyclase with 10^−4 M sodium nitroprusside (SNP) in primary mouse brain cell cultures.
# Mouse embryos were decapitated and the heads were transferred into dissection dishes. The scalp and roof of the skull were removed, and the exposed brains were transferred into another Petri dish. Using a binocular microscope and two forceps, the cerebrum (cortex) was isolated and cooled to 4° C. with ice. This dissection and the isolation of the cortical neurons were then carried out in accordance with a standard protocol with the papain dissociation system (Worthington Biochemical Corporation, Lakewood, N.J. 08701, USA) (Huettner et al. J. Neurosci. 1986, 6, 3044–3060.). […] The cells were then lysed with 200 μl lysis buffer (cGMP kit code RPN 226; from Amersham Pharmacia Biotech.) and cGMP concentration was measured as stated by the manufacturer. […]
# Cells were treated with […] SNP (0) or with […] SNP and Example 1 (1×10^−8 M; 5×10^−8 M; 1×10^−7 M; 5×10^−7 M; 1×10^−6 M) for 20 min. The intracellular cGMP level was then measured.
# PDE3B = target: T4, PDE3B (Homo sapiens, UniProt Q13370); experiment: PDE inhibition, human recombinant PDE3B, [3H]cAMP SPA; assay type: biochemical
# T4 construct: made in house; host or cells: Sf9 cells, pFASTBAC baculovirus expression system (Gibco BRL)
# Method: as §4, §5
# as §3, with “μM). The PDE2 is prestimulated by adding cGMP (final concentration in the assay: 10^−6 M). The enzyme is diluted in PDE buffer (20 mM TRIS/HCl, 5 mM MgCl2, 0.1 mg/ml albumin, pH 7.5).” for “μM).”
# as §6
# PDE4B = target: T5, PDE4B (Homo sapiens, UniProt Q07343); experiment: PDE inhibition, human recombinant PDE4B, [3H]cAMP SPA; assay type: biochemical
# T5 construct: made in house; host or cells: Sf9 cells, pFASTBAC baculovirus expression system (Gibco BRL)
# Method: as §4, §5
# as §3, with “μM). The PDE2 is prestimulated by adding cGMP (final concentration in the assay: 10^−6 M). The enzyme is diluted in PDE buffer (20 mM TRIS/HCl, 5 mM MgCl2, 0.1 mg/ml albumin, pH 7.5).” for “μM).”
# as §6
# PDE5 = target: T6, PDE5 (Homo sapiens, UniProt O76074); experiment: PDE inhibition, PDE5, [3H]cGMP SPA; assay type: biochemical
# T6 construct: from tissue; host or cells: human blood platelets (inferred; b27 also lists porcine small intestine, porcine aorta and, preferably, bovine aorta)
# Excerpt: as §1
# as §2, with “[^3H]-cGMP.” for “[^3H]-cGMP. The final concentration of the respective nucleotides is 10^−6 mol/l.”
# as §5, with “England). […]” for “England).”
# T1 sequence (O00408 whole entry): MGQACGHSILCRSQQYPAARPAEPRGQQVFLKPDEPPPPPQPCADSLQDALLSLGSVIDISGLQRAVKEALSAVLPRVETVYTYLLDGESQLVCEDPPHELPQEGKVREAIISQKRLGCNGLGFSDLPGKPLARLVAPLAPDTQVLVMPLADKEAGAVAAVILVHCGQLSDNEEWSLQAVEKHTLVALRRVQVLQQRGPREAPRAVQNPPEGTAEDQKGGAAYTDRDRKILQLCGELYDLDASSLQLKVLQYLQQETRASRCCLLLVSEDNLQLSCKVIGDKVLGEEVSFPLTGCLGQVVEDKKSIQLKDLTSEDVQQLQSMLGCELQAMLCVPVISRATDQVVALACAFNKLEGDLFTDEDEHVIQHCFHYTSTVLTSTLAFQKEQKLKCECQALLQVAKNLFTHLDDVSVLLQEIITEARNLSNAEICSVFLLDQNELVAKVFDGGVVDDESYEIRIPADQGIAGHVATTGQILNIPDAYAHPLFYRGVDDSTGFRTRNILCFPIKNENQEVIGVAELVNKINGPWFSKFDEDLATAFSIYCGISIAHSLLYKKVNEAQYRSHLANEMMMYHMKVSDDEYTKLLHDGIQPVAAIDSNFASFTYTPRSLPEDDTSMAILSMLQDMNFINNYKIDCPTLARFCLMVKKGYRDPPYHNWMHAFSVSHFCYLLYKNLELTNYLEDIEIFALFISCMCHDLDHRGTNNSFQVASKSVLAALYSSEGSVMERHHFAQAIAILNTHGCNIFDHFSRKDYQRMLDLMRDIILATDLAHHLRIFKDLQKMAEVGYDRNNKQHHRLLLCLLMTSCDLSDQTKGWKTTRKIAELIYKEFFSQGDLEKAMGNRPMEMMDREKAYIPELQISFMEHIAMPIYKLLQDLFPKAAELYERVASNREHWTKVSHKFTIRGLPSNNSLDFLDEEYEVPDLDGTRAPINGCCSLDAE
# Sequence of adenosine deaminase (P00813 whole entry, species assumed): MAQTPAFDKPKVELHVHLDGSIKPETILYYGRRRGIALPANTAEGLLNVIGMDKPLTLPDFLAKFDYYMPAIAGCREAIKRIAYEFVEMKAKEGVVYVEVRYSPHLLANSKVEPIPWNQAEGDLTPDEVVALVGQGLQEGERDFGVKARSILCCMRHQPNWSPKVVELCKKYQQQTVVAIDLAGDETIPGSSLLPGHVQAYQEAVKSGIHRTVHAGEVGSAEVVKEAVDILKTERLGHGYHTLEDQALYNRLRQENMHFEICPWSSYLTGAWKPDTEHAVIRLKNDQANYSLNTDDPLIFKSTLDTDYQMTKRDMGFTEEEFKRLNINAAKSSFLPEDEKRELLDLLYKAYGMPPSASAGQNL
# T3 sequence (Q9NP56 whole entry): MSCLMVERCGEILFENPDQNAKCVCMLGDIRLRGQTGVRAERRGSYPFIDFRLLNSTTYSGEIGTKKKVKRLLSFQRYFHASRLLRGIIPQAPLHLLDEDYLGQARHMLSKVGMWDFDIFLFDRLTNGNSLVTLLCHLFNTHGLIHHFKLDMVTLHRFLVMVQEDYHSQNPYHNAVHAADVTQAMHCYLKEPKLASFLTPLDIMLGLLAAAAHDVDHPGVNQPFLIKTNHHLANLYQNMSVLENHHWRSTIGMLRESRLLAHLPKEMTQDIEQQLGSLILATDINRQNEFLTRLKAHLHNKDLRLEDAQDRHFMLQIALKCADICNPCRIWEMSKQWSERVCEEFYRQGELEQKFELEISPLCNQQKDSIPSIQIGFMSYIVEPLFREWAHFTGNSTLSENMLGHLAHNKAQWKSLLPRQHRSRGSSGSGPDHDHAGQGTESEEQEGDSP
# T5 sequence (Q07343 whole entry): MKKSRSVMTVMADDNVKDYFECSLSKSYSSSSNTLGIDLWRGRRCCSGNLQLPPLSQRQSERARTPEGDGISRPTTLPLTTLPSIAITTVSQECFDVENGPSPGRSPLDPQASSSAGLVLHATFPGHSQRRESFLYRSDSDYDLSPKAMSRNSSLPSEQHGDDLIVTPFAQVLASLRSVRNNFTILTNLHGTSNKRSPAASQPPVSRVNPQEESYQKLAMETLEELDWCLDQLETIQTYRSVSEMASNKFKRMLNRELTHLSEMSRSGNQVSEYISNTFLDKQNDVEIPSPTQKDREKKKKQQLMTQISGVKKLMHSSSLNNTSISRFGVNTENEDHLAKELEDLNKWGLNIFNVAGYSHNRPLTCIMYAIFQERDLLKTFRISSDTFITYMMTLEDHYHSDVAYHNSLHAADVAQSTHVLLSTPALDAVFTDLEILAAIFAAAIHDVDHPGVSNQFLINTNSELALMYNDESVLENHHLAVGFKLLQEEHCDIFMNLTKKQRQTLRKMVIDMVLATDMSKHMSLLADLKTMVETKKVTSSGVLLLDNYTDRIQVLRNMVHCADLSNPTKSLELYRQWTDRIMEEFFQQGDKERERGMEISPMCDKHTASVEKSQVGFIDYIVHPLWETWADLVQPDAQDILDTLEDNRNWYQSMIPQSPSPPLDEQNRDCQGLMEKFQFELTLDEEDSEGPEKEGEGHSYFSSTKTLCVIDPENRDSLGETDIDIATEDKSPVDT
# T4 sequence (Q13370 whole entry): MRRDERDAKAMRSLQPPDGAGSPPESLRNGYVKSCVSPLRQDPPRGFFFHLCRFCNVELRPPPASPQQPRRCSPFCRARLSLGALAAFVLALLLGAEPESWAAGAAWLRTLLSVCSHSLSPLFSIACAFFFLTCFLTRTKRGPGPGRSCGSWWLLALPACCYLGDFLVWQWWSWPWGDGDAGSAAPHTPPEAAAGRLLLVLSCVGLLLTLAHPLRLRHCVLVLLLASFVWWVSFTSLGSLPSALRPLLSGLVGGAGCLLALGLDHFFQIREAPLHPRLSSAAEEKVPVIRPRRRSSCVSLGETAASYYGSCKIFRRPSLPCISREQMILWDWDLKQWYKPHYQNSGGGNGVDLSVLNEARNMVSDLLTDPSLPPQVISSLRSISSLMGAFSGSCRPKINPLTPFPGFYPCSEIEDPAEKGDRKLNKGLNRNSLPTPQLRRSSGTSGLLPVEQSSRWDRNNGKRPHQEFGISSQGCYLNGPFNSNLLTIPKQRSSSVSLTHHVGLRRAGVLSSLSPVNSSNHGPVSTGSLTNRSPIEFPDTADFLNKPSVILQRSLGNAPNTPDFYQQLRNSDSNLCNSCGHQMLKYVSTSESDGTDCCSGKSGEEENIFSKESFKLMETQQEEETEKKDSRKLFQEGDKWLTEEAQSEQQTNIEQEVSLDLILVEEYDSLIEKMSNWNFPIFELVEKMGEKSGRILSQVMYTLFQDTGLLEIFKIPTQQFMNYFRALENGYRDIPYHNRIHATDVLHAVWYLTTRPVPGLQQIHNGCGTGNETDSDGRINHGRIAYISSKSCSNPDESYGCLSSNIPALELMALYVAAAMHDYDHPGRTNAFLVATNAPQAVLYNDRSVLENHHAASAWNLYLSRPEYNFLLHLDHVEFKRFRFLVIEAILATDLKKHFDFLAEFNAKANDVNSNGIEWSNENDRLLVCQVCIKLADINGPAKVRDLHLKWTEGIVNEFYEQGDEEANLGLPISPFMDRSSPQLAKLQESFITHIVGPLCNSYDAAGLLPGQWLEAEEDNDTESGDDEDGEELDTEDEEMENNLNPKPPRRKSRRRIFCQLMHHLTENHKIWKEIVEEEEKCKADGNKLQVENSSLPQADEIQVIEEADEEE
IC50 (PDE2 [2]),IC50 (PDE7B),IC50 (PDE1),IC50 (PDE2 [3]),IC50 (PDE3B),IC50 (PDE4B),IC50 (PDE5),Structure (SMILES),IC50 (PDE2 [1]),IC50 (adenosine deaminase),memory capacity in the second run compared with control (Tylose alone) (rats; 0.3 mg/kg orally immediately after the first run),memory capacity in the second run compared with control (Tylose alone) (rats; 1.0 mg/kg orally immediately after the first run),discrimination index (d2) (rats; 0.3 and 1.0 mg/kg orally),intracellular cGMP level [4]
–,–,–,–,–,–,–,"CCCCCCC(C(C)O)n1cnc2c(N)ncnc21 (stereo not drawn) [EHNA, erythro-9-(2-hydroxy-3-nonyl)adenine]",1000 nM,3 nM,–,–,–,–
7 nM,1600 nM,200 nM,6 nM,> 4000 nM,2900 nM,300 nM,"COc1ccc(Cc2nc3c(c(C)nn3C(CCCc3ccccc3)C(C)O)c(=O)[nH]2)cc1OC (stereo not shown) [Example 1, 6-(3,4-dimethoxybenzyl)-1-[1-(1-hydroxyethyl)-4-phenylbutyl]-3-methyl-1,5-dihydropyrazolo[3,4-d]pyrimidin-4-one]",–,–,improved,improved,greater than zero,distinct increase

# Source: patent publication US7022709B2, “Selective PDE 2 inhibitors as pharmaceuticals for improving perception” (priority 2000, dated 2006)
